Laboratory results taken from article PMC6505380, “An Extensively Humanized Mouse Model to Predict Pathways of Drug Disposition and Drug/Drug Interactions, and to Facilitate Design of Clinical Trials” (Drug Metabolism and Disposition, 2019).
Like-named read-outs stand apart in the source and are kept apart here.

How the values were obtained:
CYP3A4 [1] = target: T1, CYP3A4 (Homo sapiens, UniProt P08684); test: 7-Benzyloxyquinoline O-debenzylation in liver microsomes of rifampicin- or vehicle-treated 8HUM mice; format: in vitro ADME; details: liver microsomes of rifampicin-treated 8HUM mice
T1 construct: pooled rifampicin-treated male and female 8HUM mice (8HUM) or pooled human liver microsomes (HLM); host or cells: liver microsomes: pooled human liver; liver of 8HUM mice carrying human CYP3A4/CYP3A7 under the human promoter
T1 sequence (P08684 whole entry): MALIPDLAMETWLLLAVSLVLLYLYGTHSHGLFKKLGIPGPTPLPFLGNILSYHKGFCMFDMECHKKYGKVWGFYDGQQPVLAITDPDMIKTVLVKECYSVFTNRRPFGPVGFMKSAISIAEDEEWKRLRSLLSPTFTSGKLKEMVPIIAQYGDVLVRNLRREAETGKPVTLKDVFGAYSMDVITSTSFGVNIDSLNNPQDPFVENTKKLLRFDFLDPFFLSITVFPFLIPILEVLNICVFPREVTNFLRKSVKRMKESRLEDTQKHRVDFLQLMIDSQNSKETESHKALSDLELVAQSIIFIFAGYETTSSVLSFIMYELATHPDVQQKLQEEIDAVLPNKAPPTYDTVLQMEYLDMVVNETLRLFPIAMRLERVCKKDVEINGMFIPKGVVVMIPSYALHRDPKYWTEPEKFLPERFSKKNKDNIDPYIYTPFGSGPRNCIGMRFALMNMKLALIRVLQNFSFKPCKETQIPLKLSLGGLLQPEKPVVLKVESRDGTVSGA

CYP2D6 [2] = target: CYP2D6 (Homo sapiens, UniProt P10635, R296C/S486T); test: Enzyme inhibition assay, debrisoquine 4-hydroxylation (HLM, 8HUM microsomes); details: 8HUM microsomes […]; debrisoquine 67 μM in cocktail; furafylline 3, enoxacin 200, fluconazole 300, sulfaphenazole 3, quinidine 3, paroxetine 10, ketoconazole 1 μM
Method: (§1) After a 5-minute preincubation at 37°C, reactions were initiated by addition of NADPH (1.3 mM). […] The samples were then centrifuged at 3000g for 55 minutes at 4°C, and an aliquot of the supernatant fraction was analyzed by LC-MS/MS. All experiments were performed at least in triplicate.

CYP2D6 [3] = test: as above; details: for Debrisoquine (4-OH Debrisoquine) activity, percent of activity measured in the absence of inhibitor: HLM […], debrisoquine 67 μM in cocktail, furafylline 3, enoxacin 200, fluconazole 300, sulfaphenazole 3, quinidine 3, paroxetine 10, ketoconazole 1 μM
Method: as §1

CYP2C9 [4] = target: T2, CYP2C9 (Homo sapiens, UniProt P11712); test: Enzyme inhibition assay, tolbutamide hydroxylation (HLM, 8HUM microsomes); details: tolbutamide 2 μM in cocktail, furafylline 3, enoxacin 200, fluconazole 300, sulfaphenazole 3, quinidine 3, paroxetine 10, ketoconazole 1 μM
T2 sequence (P11712 whole entry): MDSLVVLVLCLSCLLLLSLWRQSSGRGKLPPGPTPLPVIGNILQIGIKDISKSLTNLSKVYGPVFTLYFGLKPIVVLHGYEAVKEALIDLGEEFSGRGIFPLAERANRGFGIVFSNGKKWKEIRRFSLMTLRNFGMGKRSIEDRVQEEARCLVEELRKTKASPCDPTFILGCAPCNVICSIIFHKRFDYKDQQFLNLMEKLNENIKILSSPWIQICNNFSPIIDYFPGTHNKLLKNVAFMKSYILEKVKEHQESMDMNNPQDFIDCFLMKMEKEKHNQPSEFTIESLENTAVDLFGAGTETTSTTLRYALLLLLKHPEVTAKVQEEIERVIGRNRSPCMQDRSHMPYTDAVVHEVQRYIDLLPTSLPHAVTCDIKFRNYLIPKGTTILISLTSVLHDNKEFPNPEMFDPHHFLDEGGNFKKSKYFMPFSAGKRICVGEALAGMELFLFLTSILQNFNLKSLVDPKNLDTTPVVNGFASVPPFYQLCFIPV
Method: as §1

CYP2C9 [5] = target: T2, CYP2C9; details: sulfaphenazole 50 μM
CYP3A4 [6] = test: CYP3A4 induction by PXR activators in humanized CAR/PXR/CYP3A4 mice; details: CAR/PXR/CYP3A4 model (Supplemental Fig. 4)
Excerpt: We therefore sought to identify a specific, clinically relevant PXR agonist that was nontoxic. […] Subsequent studies were therefore undertaken using SJW to induce CYP3A4 expression in 8HUM mice.

CYP1A2 [7] = target: T3, CYP1A2 (Homo sapiens, UniProt P05177)
T3 sequence (P05177 1-516): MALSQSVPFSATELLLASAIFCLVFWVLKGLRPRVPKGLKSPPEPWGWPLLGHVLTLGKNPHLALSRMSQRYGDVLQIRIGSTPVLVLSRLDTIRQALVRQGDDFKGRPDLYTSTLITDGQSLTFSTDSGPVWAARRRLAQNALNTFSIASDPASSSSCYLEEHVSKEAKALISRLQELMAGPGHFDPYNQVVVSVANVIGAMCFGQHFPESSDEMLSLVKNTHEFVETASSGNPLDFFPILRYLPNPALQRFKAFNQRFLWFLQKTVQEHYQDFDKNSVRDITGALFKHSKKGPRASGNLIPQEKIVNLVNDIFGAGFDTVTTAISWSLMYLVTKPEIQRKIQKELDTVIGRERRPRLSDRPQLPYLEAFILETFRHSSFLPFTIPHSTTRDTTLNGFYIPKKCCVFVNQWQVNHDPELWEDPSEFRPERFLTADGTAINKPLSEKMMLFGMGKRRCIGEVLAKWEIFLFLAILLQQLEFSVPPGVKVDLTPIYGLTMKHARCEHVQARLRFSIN
Method: (§2) A mixture of either 7-methoxyresorufin or 7-ethoxyresorufin (1 μM) and 8HUM liver microsomes or HLM (∼0.38 mg protein/ml) in 100 mM potassium phosphate buffer (pH 7.4) supplemented with MgCl2 (3.3 mM) was incubated at 37°C for 5 minutes before the addition of NADPH (final concentration 1.2 mM). […] Slopes of the linear part of the kinetic curves were calculated using Ascent Software Version 2.4.1 (Labsystems). For each reaction two controls, with and without reaction product resorufin (40 pmol) were run. Fluorescence was measured from both control wells and the difference in fluorescence intensity between wells with and without resorufin was used for the conversion of the relative fluorescence units to the picomoles of the reaction product.

CYP1A2 [8] = target: T3, CYP1A2; test: Enzyme inhibition assay, caffeine to paraxanthine (HLM, 8HUM microsomes); details: caffeine 220 μM in cocktail, furafylline 3, enoxacin 200, fluconazole 300, sulfaphenazole 3, quinidine 3, paroxetine 10, ketoconazole 1 μM
Method: as §1

[9] = Pharmacokinetics of cassette-dosed probe drugs in 8HUM mice with or without rifampicin pretreatment; details: female, mouse, in vivo, po, AUCall, female 8HUM mice, oral cassette: caffeine, debrisoquine, tolbutamide 5 mg/kg, midazolam 3 mg/kg
Method: Female 8HUM mice received either two daily intraperitoneal doses of RIF (n = 4; 20–26 weeks) or vehicle (corn oil; n = 4; 25–29 weeks). […] Blood samples (10 μl) were collected at the indicated time points after dosing, mixed immediately with 10 μl of heparin (15 IU/ml), snap frozen in liquid nitrogen, and stored at approximately −70°C prior to analysis (see Supplemental Data for details).
Pharmacokinetic parameters were calculated by Phoenix WinNonlin version 8.0.0.3176 (Certara, Princeton, NJ).
Fig. 2. […] Data shown are mean ± S.D.

CYP3A4 [10] = target: T1, CYP3A4; test: Kinetic parameters of 1-hydroxyl midazolam formation in liver microsomes (HLM, 8HUM); format: in vitro ADME; details: pH 7.4
Method: All samples were handled in amber tubes under conditions of subdued light for the duration of the procedure. […] The samples were then centrifuged at 3000g for 55 minutes at 4°C and an aliquot of the supernatant fraction was analyzed by LC-MS/MS.
Calibration curves were constructed with authentic metabolite standards and linear regression analysis used to calculate the amount of metabolite formed in each test sample. […] The 7-ethoxyresorufin O-deethylation assay was carried out as detailed below.

[11] = Osimertinib pharmacokinetics in 8HUM mice: effect of rifampicin and β-naphthoflavone; details: female, mouse, in vivo, po, 25 mg/kg; for AUC / Cmax: female 8HUM mice, osimertinib 25 mg/kg oral
Excerpt: Humans and rodents metabolize drugs down different pathways and also generate different metabolites both in their site of oxidation as well as in different metabolite ratios when multiple sites of oxidation are involved. […] Mice were pretreated with either RIF or a combination of RIF and β-naphthoflavone (BNF), an aryl hydrocarbon receptor agonist that induces P450s in the CYP1A gene family.
Fig. 4. […] Osimertinib structure and sites of metabolism in humans (C) are also shown. […] Panel B prints no name for the measured substance; it is presumably Osimertinib, the name printed in panel A.

[12] = design: method as in Cross et al., 2014; details: WT mice; ref Cross et al., 2014; cited from earlier work
CYP1A2 [13] = target: T3, CYP1A2; test: in vitro; details: 8HUM, mouse, microsomes, pH 7.4, Inhibition of 7-methoxyresorufin metabolism
Method: as §2

[14] = RIF + BNF 80 mg/kg i.p. daily 3 days
[15] = RIF in diet (equivalent 10 mg/kg) 3 days

Compound: c1ccc(COc2ccc3cccnc3c2)cc1 [7-BQ, 7-benzyloxyquinoline]
- Rate of 7-BQ hydroxylation (metabolism) (CYP3A4 [1]): 4218 ± 550 pmol/min per milligram

Compound: Cc1nc2c([nH]1)c(=O)n(C)c(=O)n2Cc1ccco1 [Furafylline, furafylline]
- Debrisoquine (4-OH Debrisoquine) activity, percent of activity measured in the absence of inhibitor (CYP2D6 [2]): 91 ± 13%
- Debrisoquine (4-OH Debrisoquine) activity, percent of activity measured in the absence of inhibitor (CYP2D6 [3]): 65 ± 9%
- Tolbutamide (OH-Tolbutamide) activity, percent of activity measured in the absence of inhibitor (CYP2C9 [4]; 8HUM microsomes […]): 63 ± 19%
- Tolbutamide (OH-Tolbutamide) activity, percent of activity measured in the absence of inhibitor (CYP2C9 [4]; HLM […]): 103 ± 25%

Compound: Nc1ccc(S(=O)(=O)Nc2ccnn2-c2ccccc2)cc1 [Sulfaphenazole, sulfaphenazole]
- Tolbutamide (OH-Tolbutamide) activity, percent of activity measured in the absence of inhibitor (CYP2C9 [4]; 8HUM microsomes […]): 28 ± 15%
- Tolbutamide (OH-Tolbutamide) activity, percent of activity measured in the absence of inhibitor (CYP2C9 [4]; HLM […]): 14 ± 4%
- Remaining tolbutamide 4-hydroxylation activity in the presence of inhibitor (CYP2C9 [5]; liver microsomes of control 8HUM mice): 2.01 ± 0.33 pmol/min per milligram
- Remaining tolbutamide 4-hydroxylation activity in the presence of inhibitor (CYP2C9 [5]; liver microsomes of rifampicin-treated 8HUM mice): 11.43 ± 9.38 pmol/min per milligram

Compound: O=C1Nc2ccc(Cl)cc2[C@@](C#CC2CC2)(C(F)(F)F)O1 [EFV, efavirenz]
- Induction of CYP3A4 (CYP3A4 [6]): effective inducers of CYP3A4

Compound: CCC1(c2ccccc2)C(=O)NC(=O)NC1=O [PB, phenobarbital]
- Induction of CYP3A4 (CYP3A4 [6]): effective inducers of CYP3A4

Compound: COc1ccc2nc3ccc(=O)cc-3oc2c1 [7-methoxyresorufin]
- Rate of 7-methoxyresorufin metabolism (CYP1A2 [7]): 42.84 ± 9.93 pmol/min per milligram

Compound: OC(Cn1cncn1)(Cn1cncn1)c1ccc(F)cc1F [Fluconazole, fluconazole]
- Debrisoquine (4-OH Debrisoquine) activity, percent of activity measured in the absence of inhibitor (CYP2D6 [2]): 88 ± 19%
- Debrisoquine (4-OH Debrisoquine) activity, percent of activity measured in the absence of inhibitor (CYP2D6 [3]): 96 ± 9%
- Tolbutamide (OH-Tolbutamide) activity, percent of activity measured in the absence of inhibitor (CYP2C9 [4]; 8HUM microsomes […]): 41 ± 33%
- Tolbutamide (OH-Tolbutamide) activity, percent of activity measured in the absence of inhibitor (CYP2C9 [4]; HLM […]): 35 ± 21%
- Caffeine (Paraxanthine) activity, percent of activity measured in the absence of inhibitor (CYP1A2 [8]; 8HUM microsomes […]): 100 ± 31%
- Caffeine (Paraxanthine) activity, percent of activity measured in the absence of inhibitor (CYP1A2 [8]; HLM […]): 114 ± 37%

Compound: C=C[C@H]1C[N@@]2CC[C@H]1C[C@@H]2[C@@H](O)c1ccnc2ccc(OC)cc12 [Quinidine, quinidine]
- Debrisoquine (4-OH Debrisoquine) activity, percent of activity measured in the absence of inhibitor (CYP2D6 [2]): 43 ± 5%

Compound: Cc1ncc2n1-c1ccc(Cl)cc1C(c1ccccc1F)=NC2 [Midazolam, midazolam]
- AUC ([9]; rifampicin 10 mg/kg i.p. daily for 2 days pretreatment): 68.8 ± 21.1 ng·h/mL
- AUC ([9]; vehicle (corn oil) i.p. pretreatment): 860 ± 138 ng·h/mL
- Km at 2 min (CYP3A4 [10]; both sexes, 8HUM, mouse, liver microsomes of pooled rifampicin-treated 8HUM mice): 1.2 ± 0.3 µM
- Km at 2 min (CYP3A4 [10]; human, pooled human liver microsomes): 0.73 ± 0.2 µM

Compound: C=CC(=O)Nc1cc(Nc2nccc(-c3cn(C)c4ccccc34)n2)c(OC)cc1N(C)CCN(C)C [osimertinib]
- half-life ([11]; 8HUM mice, osimertinib 25 mg/kg by oral gavage): 20 h
- AUC ([11]; Control (normal RM1 diet)): 3750 ± 614 ng·h/mL
- Cmax ([11]; Control (normal RM1 diet)): 199 ± 29 ng/mL
- AUC [11, 14]: 661 ± 132 ng·h/mL
- Cmax [11, 14]: 71 ± 7 ng/mL
- AUC [11, 15]: 2140 ± 631 ng·h/mL
- Cmax [11, 15]: 139 ± 26 ng/mL
- half-life [12]: 3.5 h

Compound: O=c1cc(-c2ccccc2)oc2c1ccc1ccccc12 [α-naphthoflavone]
- inhibition at 3.33 μM (CYP1A2 [13]): 75%

Compound: Fc1ccc([C@@H]2CCNC[C@H]2COc2ccc3c(c2)OCO3)cc1 [Paroxetine, paroxetine]
- Debrisoquine (4-OH Debrisoquine) activity, percent of activity measured in the absence of inhibitor (CYP2D6 [3]): 52 ± 11%
- Species difference in extent of inhibition of debrisoquine 4-hydroxylation (HLM vs 8HUM microsomes) (CYP2D6 [3]; HLM vs microsomes from 8HUM mice): 4 fold
